In patent publication US9683019B2, “Cyclic polypeptides for the treatment of heart failure” (priority 2013, dated 2017):
Like-named read-outs stand apart in the source and are kept apart here. Where a SMILES comes first, the peptide text is derived from it. Bridges are numbered along the chain shown (N, C = ends). [ ]: non-standard residue; d: D form. The star is where a group is joined. 2Nal = N[C@@H](Cc1ccc2ccccc2c1)C(=O)O; N(Me)CH2CH2Ph = CN(CCc1ccccc1)*; pGlu = O=C1CC[C@@H](C(=O)O)N1; NHPhenethyl = c1ccc(CCN*)cc1; d(hCys) = N[C@H](CCS)C(=O)O; dNle = CCCC[C@@H](N)C(=O)O; hCys = N[C@@H](CCS)C(=O)O; Nle = CCCC[C@H](N)C(=O)O; dAbu = CC[C@@H](N)C(=O)O

Experiment: Surrogate Activity-Based Plasma Stability Assay
Format: in vitro ADME
Conditions: rat
Description: Surrogate Activity-Based Plasma Stability Assay:
2) Calculate slope of value above and […]

Compound | half-life [min] | half-life (read-out: Surrogate activity-based Plasma stability t½) [min]
CCCC[C@H](NC(=O)[C@@H]1CCCN1C(=O)CNC(=O)[C@H](CCCCN)NC(=O)[C@@H]1CSSC[C@H](NC(C)=O)C(=O)N[C@@H](CCCNC(=N)N)C(=O)N2CCC[C@H]2C(=O)N[C@@H](CCCNC(=N)N)C(=O)N[C@@H](CC(C)C)C(=O)N[C@@H](CO)C(=O)N1)C(=O)N1CCC[C@H]1C(=O)N[C@H](C)C(=O)O [Example 8, Ac-C*-R-P-R-L-S-C*-K-G-P-Nle-P-a-OH] (Ac-CRPRLSCKGP[Nle]P[dA]-OH; disulfide 1-7) | 662 | 
CCCC[C@H](NC(=O)[C@@H]1CCCN1C(=O)CNC(=O)[C@H](CCCCN)NC(=O)[C@@H]1CSSC[C@H](NC(C)=O)C(=O)N[C@@H](CCCNC(=N)N)C(=O)N2CCC[C@H]2C(=O)N[C@@H](CCCNC(=N)N)C(=O)N[C@@H](CC(C)C)C(=O)N[C@@H](CO)C(=O)N1)C(=O)N1CCC[C@H]1C(=O)N[C@@H](Cc1ccc2ccccc2c1)C(=O)O [Example 5, Ac-C*-R-P-R-L-S-C*-K-G-P-Nle-P-Nal-OH] (Ac-CRPRLSCKGP[Nle]P[2Nal]-OH; disulfide 1-7) | 5 | 
CCCC[C@H](NC(=O)[C@@H]1CCCN1C(=O)CNC(=O)[C@H](CCCCN)NC(=O)[C@@H]1CSSC[C@H](NC(C)=O)C(=O)N[C@@H](CCCNC(=N)N)C(=O)N2CCC[C@H]2C(=O)N[C@@H](CCCNC(=N)N)C(=O)N[C@@H](CC(C)C)C(=O)N[C@@H](CO)C(=O)N1)C(=O)N1CCC[C@H]1C(=O)N(C)CCc1ccccc1 [Example 9, Ac-C*-R-P-R-L-S-C*-K-G-P-Nle-P-NMe(Phenethyl)] (Ac-CRPRLSCKGP[Nle]P-{N(Me)CH2CH2Ph}; disulfide 1-7) |  | 109
CCCC[C@@H](NC(=O)[C@@H]1CCCN1C(=O)CNC(=O)[C@H](CCCCN)NC(=O)[C@@H]1CSSC[C@H](NC(=O)[C@H](CCCNC(=N)N)NC(=O)[C@@H]2CCC(=O)N2)C(=O)N[C@@H](CCCNC(=N)N)C(=O)N[C@@H](CC(C)C)C(=O)N[C@@H](CO)C(=O)N1)C(=O)N[C@H](C)C(=O)N[C@H](Cc1ccccc1)C(=O)O [Example 21, pE-R-C*-R-L-S-C*-K-G-P-(D-Nle)-a-f-OH] ([pGlu]RCRLSCKGP[dNle][dA][dF]-OH; disulfide 3-7) | > 1000 | 
CCCC[C@H](NC(=O)[C@@H]1CCCN1C(=O)CNC(=O)[C@H](CCCCN)NC(=O)[C@@H]1CSSC[C@H](NC(=O)[C@@H]2CCCN2C(=O)[C@H](CCCNC(=N)N)NC(=O)[C@@H]2CCC(=O)N2)C(=O)N[C@@H](CC(C)C)C(=O)N[C@@H](CO)C(=O)N1)C(=O)NCCc1ccccc1 [Example 31, pE-R-P-C*-L-S-C*-K-G-P-Nle-NH(Phenethyl)] | 43.1 | 
CCCC[C@H](NC(=O)[C@@H]1CCCN1C(=O)CNC(=O)[C@H](CCCCN)NC(=O)[C@@H]1CCSSCC[C@@H](NC(C)=O)C(=O)N[C@@H](CCCNC(=N)N)C(=O)N2CCC[C@H]2C(=O)N[C@@H](CCCNC(=N)N)C(=O)N[C@@H](CC(C)C)C(=O)N[C@@H](CO)C(=O)N1)C(=O)N1CCC[C@H]1C(=O)N[C@@H](Cc1ccccc1)C(=O)O [Example 16, Ac-(D-hC)*-R-P-R-L-S-hC*-K-G-P-Nle-P-F-OH] (Ac-[d(hCys)]RPRLS[hCys]KGP[Nle]PF-OH; disulfide 1-7) | 7 | 
CCCC[C@H](NC(=O)[C@@H]1CCCN1C(=O)CNC(=O)[C@H](CCCCN)NC(=O)[C@@H]1CSSC[C@H](NC(C)=O)C(=O)N[C@@H](CCCNC(=N)N)C(=O)N2CCC[C@H]2C(=O)N[C@@H](CCCNC(=N)N)C(=O)N[C@@H](CC(C)C)C(=O)N[C@@H](CO)C(=O)N1)C(=O)N1CCC[C@H]1C(=O)NCCc1ccccc1 [Example 2, Ac-C*-R-P-R-L-S-C*-K-G-P-Nle-P-NH(Phenethyl)] (Ac-CRPRLSCKGP[Nle]P-NHPhenethyl; disulfide 1-7) | 39 | 
CCCC[C@H](NC(=O)[C@@H]1CCCN1C(=O)CNC(=O)[C@H](CCCCN)NC(=O)[C@@H]1CCSSC[C@@H](NC(C)=O)C(=O)N[C@@H](CCCNC(=N)N)C(=O)N2CCC[C@H]2C(=O)N[C@@H](CCCNC(=N)N)C(=O)N[C@@H](CC(C)C)C(=O)N[C@@H](CO)C(=O)N1)C(=O)N1CCC[C@H]1C(=O)N[C@@H](Cc1ccccc1)C(=O)O [Example 13, Ac-c*-R-P-R-L-S-hC*-K-G-P-Nle-P-F-OH] (Ac-[dC]RPRLS[hCys]KGP[Nle]PF-OH; disulfide 1-7) | 10 | 
CCCC[C@H](NC(=O)[C@@H]1CCCN1C(=O)CNC(=O)[C@H](CCCCN)NC(=O)[C@@H]1CSSC[C@H](NC(C)=O)C(=O)N[C@@H](CCCNC(=N)N)C(=O)N2CCC[C@H]2C(=O)N[C@@H](CCCNC(=N)N)C(=O)N[C@@H](CC(C)C)C(=O)N[C@@H](CO)C(=O)N1)C(=O)N1CCC[C@H]1C(N)=O [Example 4, Ac-C*-R-P-R-L-S-C*-K-G-P-Nle-P-NH2] (Ac-CRPRLSCKGP[Nle]P-NH2; disulfide 1-7) | 506 | 
CCCC[C@H](NC(=O)[C@@H]1CCCN1C(=O)CNC(=O)[C@H](CCCCN)NC(=O)[C@H]1CSSC[C@@H](NC(C)=O)C(=O)N[C@@H](CCCNC(=N)N)C(=O)N2CCC[C@H]2C(=O)N[C@@H](CCCNC(=N)N)C(=O)N[C@@H](CC(C)C)C(=O)N[C@@H](CO)C(=O)N1)C(=O)N1CCC[C@H]1C(=O)N[C@@H](Cc1ccccc1)C(=O)O [Example 14, Ac-c*-R-P-R-L-S-c*-K-G-P-Nle-P-F-OH] (Ac-[dC]RPRLS[dC]KGP[Nle]PF-OH; disulfide 1-7) | 7.5 | 
CCCC[C@H](NC(=O)[C@@H]1CCCN1C(=O)CNC(=O)[C@H](CCCCN)NC(=O)[C@@H]1CSSC[C@H](NC(C)=O)C(=O)N[C@@H](CCCNC(=N)N)C(=O)N2CCC[C@H]2C(=O)N[C@@H](CCCNC(=N)N)C(=O)N[C@@H](CC(C)C)C(=O)N[C@@H](CO)C(=O)N1)C(=O)N1CCC[C@H]1C(=O)N[C@H](Cc1ccccc1)C(=O)O [Example 10, Ac-C*-R-P-R-L-S-C*-K-G-P-Nle-P-f-OH] (Ac-CRPRLSCKGP[Nle]P[dF]-OH; disulfide 1-7) | 57.4 | 

Second part, led by results:

half-life [min] | Compound | half-life (read-out: Surrogate activity-based Plasma stability t½) [min]
1700 | CCCC[C@@H](NC(=O)[C@@H]1CCCN1C(=O)[C@H](C)NC(=O)[C@H](CCCCN)NC(=O)[C@@H]1CSSC[C@H](NC(=O)[C@H](CCCNC(=N)N)NC(=O)[C@@H]2CCC(=O)N2)C(=O)N[C@@H](CCCNC(=N)N)C(=O)N[C@@H](CC(C)C)C(=O)N[C@@H](CO)C(=O)N1)C(=O)N[C@H](C)C(=O)N[C@H](Cc1ccccc1)C(=O)O [Example 24, pE-R-C*-R-L-S-C*-K-A-P-(D-Nle)-a-f-OH] ([pGlu]RCRLSCKAP[dNle][dA][dF]-OH; disulfide 3-7) | 
13 | CCCC[C@H](NC(=O)[C@@H]1CCCN1C(=O)CNC(=O)[C@H](CCCCN)NC(=O)[C@@H]1CSSC[C@H](NC(=O)[C@@H]2CCCN2C(=O)[C@H](CCCNC(=N)N)NC(=O)[C@@H]2CCC(=O)N2)C(=O)N[C@@H](CC(C)C)C(=O)N[C@@H](CO)C(=O)N1)C(=O)N1CCC[C@H]1C(=O)N[C@@H](Cc1ccccc1)C(=O)O [Example 28, pE-R-P-C*-L-S-C*-K-G-P-Nle-P-F-OH] ([pGlu]RPCLSCKGP[Nle]PF-OH; disulfide 4-7) | 
82 | CCCC[C@@H](NC(=O)[C@@H]1CCCN1C(=O)CNC(=O)[C@H](CCCCN)NC(=O)[C@@H]1CSSC[C@@H](NC(=O)[C@H](CCCNC(=N)N)NC(=O)[C@@H]2CCC(=O)N2)C(=O)N[C@@H](CCCNC(=N)N)C(=O)N[C@@H](CC(C)C)C(=O)N[C@@H](CO)C(=O)N1)C(=O)N[C@H](CC)C(=O)N[C@H](Cc1ccccc1)C(=O)O [Example 27, pE-R-c*-R-L-S-C*-K-G-P-(D-Nle)-(D-abu)-f-OH] ([pGlu]R[dC]RLSCKGP[dNle][dAbu][dF]-OH; disulfide 3-7) | 
47 | CCCC[C@@H](NC(=O)[C@@H]1CCCN1C(=O)CNC(=O)[C@H](CCCCN)NC(=O)[C@H]1CCSSC[C@@H](NC(=O)[C@@H]2CCCN2C(=O)[C@H](CCCNC(=N)N)NC(=O)[C@@H]2CCC(=O)N2)C(=O)N[C@@H](CC(C)C)C(=O)N[C@@H](CO)C(=O)N1)C(=O)N[C@H](C)C(=O)N[C@H](Cc1ccc(O)cc1)C(=O)O [Example 37, pE-R-P-c*-L-S-(D-hC)*-K-G-P-(D-Nle)-a-y-OH] ([pGlu]RP[dC]LS[d(hCys)]KGP[dNle][dA][dY]-OH; disulfide 4-7) | 
> 1000 | CCCC[C@@H](NC(=O)[C@@H]1CCCN1C(=O)CNC(=O)[C@H](Cc1ccccc1)NC(=O)[C@@H]1CSSC[C@H](NC(=O)[C@H](CCCNC(=N)N)NC(=O)[C@@H]2CCC(=O)N2)C(=O)N[C@@H](CCCNC(=N)N)C(=O)N[C@@H](CC(C)C)C(=O)N[C@@H](CO)C(=O)N1)C(=O)N[C@H](C)C(=O)N[C@H](Cc1ccccc1)C(=O)O [Example 22, pE-R-C*-R-L-S-C*-F-G-P-(D-Nle)-a-f-OH] ([pGlu]RCRLSCFGP[dNle][dA][dF]-OH; disulfide 3-7) | 
> 1000 | CCCC[C@@H](NC(=O)[C@@H]1CCCN1C(=O)CNC(=O)[C@H](CCCCN)NC(=O)[C@@H]1CSSC[C@H](NC(=O)[C@H](CCCNC(=N)N)NC(=O)[C@@H]2CCC(=O)N2)C(=O)N[C@@H](CCCNC(=N)N)C(=O)N[C@@H](CC(C)C)C(=O)N[C@@H](CO)C(=O)N1)C(N)=O [Example 25, pE-R-C*-R-L-S-C*-K-G-P-(D-Nle)-NH2] ([pGlu]RCRLSCKGP[dNle]-NH2; disulfide 3-7) | 
